In ChEMBL document CHEMBL1201862, “PubChem BioAssay data set” (2004):
Blank lines part the entries; values can stand above or below the molecule they belong to. Activity calls are given as the source filed them.

Tests used:
[1] = target: T1, Lysine-specific demethylase 4C (Homo sapiens, UniProt Q9H3R0); test: GASC-1 (JMJD2C) histone demethylase inhibitors, dose response, biochemical, DELFIA europium, cherry-picked samples (AID 488835); assay type: functional
T1 sequence (Q9H3R0 whole entry): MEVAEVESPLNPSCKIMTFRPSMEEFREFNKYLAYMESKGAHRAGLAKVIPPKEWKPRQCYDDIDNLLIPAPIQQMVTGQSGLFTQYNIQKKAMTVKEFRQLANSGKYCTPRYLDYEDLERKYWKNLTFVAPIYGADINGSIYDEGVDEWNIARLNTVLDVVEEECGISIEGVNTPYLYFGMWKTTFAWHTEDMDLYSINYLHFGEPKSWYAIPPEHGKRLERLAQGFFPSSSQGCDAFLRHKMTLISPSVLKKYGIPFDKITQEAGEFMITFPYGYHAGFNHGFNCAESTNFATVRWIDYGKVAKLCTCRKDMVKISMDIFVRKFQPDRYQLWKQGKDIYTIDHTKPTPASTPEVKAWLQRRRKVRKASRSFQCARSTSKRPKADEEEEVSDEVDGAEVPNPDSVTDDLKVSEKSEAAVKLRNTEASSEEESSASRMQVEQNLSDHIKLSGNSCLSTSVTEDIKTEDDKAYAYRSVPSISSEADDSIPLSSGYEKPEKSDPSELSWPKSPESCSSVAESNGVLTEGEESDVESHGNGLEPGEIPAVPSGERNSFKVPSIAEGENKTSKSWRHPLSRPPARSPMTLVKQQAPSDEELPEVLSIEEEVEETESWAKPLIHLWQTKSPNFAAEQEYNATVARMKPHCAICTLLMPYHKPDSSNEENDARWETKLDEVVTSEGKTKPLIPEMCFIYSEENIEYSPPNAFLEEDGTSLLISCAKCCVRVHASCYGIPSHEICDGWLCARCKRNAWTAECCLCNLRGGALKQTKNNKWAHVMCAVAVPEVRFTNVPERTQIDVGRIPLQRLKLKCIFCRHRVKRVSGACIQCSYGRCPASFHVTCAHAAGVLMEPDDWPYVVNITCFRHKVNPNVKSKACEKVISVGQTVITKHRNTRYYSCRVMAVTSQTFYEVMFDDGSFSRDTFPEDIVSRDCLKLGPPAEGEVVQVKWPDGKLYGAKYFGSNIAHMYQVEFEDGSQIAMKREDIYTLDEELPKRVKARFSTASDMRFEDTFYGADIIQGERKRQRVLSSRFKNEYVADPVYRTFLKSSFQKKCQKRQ

[2] = cells; assay type: functional, cell-based
[3] = target: Peroxisome proliferator-activated receptor gamma/Nuclear receptor coactivator 1 (Homo sapiens, UniProt P37231); test: (§1) TR-FRET dose response biochemical High Throughput Screening assay for agonists of the steroid receptor coactivator 1 (SRC-1) recruitment by the peroxisome proliferator-activated receptor gamma (PPAR gamma): non-selective agonists. [Related pubchem assays (depositor defined):AID1300, AID1808, AID504735, AID631]; assay type: protein assay
Sequence of Peroxisome proliferator-activated receptor gamma/Nuclear receptor coactivator 1 (P37231 whole entry): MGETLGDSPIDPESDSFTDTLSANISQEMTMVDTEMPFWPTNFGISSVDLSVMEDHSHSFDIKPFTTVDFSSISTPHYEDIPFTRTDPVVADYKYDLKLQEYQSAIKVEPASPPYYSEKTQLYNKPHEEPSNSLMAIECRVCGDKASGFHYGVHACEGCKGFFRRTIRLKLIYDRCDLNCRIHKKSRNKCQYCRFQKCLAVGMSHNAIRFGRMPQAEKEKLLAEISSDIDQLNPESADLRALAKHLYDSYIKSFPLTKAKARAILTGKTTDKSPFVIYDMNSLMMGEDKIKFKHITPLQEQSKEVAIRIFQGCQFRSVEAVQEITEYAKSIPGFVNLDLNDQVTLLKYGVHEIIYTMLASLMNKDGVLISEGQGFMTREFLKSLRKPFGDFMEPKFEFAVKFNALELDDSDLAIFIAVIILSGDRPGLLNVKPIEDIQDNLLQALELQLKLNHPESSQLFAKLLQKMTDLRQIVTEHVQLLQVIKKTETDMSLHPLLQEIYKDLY
Sequence of Peroxisome proliferator-activated receptor gamma/Nuclear receptor coactivator 1 (Q15788 whole entry, further chain): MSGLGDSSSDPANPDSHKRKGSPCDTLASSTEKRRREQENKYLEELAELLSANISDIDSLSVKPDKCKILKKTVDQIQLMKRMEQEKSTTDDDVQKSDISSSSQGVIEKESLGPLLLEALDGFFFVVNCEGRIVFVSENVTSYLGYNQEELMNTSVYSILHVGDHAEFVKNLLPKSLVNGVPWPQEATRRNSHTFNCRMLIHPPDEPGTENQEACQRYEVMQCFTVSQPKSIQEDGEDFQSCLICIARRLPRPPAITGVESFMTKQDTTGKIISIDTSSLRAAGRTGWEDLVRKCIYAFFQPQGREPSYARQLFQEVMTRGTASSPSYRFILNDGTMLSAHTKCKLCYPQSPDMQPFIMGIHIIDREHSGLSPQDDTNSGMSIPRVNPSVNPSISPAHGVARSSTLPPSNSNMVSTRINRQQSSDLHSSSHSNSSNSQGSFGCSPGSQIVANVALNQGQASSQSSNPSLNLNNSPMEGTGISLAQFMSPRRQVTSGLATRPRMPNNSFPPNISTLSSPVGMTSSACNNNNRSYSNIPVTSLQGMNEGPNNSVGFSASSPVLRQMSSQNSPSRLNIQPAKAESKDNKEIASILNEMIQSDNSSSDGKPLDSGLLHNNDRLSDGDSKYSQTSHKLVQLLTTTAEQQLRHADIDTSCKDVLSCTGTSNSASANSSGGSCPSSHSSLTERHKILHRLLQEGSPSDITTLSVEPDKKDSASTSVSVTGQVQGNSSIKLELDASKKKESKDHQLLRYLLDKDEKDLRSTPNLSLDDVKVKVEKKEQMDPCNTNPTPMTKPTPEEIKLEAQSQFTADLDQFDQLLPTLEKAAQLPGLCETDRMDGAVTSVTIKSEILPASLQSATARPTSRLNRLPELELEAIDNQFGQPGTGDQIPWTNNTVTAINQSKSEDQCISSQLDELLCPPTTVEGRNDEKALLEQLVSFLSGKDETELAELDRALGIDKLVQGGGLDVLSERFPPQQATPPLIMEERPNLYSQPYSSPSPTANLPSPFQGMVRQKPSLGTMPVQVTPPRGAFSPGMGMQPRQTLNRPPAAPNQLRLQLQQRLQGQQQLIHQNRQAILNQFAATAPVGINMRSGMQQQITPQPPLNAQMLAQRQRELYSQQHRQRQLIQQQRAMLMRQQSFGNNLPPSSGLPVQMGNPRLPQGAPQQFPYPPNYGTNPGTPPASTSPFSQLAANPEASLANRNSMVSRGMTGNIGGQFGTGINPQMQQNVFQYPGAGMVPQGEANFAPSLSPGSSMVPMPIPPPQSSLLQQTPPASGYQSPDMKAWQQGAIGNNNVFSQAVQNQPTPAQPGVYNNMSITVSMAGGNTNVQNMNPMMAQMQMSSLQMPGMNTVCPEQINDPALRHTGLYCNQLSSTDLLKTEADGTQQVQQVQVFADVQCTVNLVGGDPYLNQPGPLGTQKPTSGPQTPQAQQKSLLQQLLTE

[4] = target: Peroxisome proliferator-activated receptor gamma/Nuclear receptor coactivator 3 (Homo sapiens, UniProt P37231); test: as §1, with “3 (SRC-3)” for “1 (SRC-1)”, “assays: 1301 (Confirmation screen.), 1048 (Primary screen.)]” for “assays (depositor defined):AID1300, AID1808, AID504735, AID631]”; assay type: functional
[5] = target: Peroxisome proliferator-activated receptor gamma/Nuclear receptor coactivator 2 (Homo sapiens, UniProt P37231); test: TR-FRET dose response biochemical High Throughput Screening assay for agonists of the steroid receptor coactivator 2 (SRC-2) recruitment by the peroxisome proliferator-activated receptor gamma (PPAR gamma): non-selective agonists. [Related pubchem assays: 1297, 1032 ]; assay type: functional
Sequence of Peroxisome proliferator-activated receptor gamma/Nuclear receptor coactivator 2 (P37231 whole entry): as the sequence (P37231 whole entry) above
Sequence of Peroxisome proliferator-activated receptor gamma/Nuclear receptor coactivator 2 (Q15596 whole entry, further chain): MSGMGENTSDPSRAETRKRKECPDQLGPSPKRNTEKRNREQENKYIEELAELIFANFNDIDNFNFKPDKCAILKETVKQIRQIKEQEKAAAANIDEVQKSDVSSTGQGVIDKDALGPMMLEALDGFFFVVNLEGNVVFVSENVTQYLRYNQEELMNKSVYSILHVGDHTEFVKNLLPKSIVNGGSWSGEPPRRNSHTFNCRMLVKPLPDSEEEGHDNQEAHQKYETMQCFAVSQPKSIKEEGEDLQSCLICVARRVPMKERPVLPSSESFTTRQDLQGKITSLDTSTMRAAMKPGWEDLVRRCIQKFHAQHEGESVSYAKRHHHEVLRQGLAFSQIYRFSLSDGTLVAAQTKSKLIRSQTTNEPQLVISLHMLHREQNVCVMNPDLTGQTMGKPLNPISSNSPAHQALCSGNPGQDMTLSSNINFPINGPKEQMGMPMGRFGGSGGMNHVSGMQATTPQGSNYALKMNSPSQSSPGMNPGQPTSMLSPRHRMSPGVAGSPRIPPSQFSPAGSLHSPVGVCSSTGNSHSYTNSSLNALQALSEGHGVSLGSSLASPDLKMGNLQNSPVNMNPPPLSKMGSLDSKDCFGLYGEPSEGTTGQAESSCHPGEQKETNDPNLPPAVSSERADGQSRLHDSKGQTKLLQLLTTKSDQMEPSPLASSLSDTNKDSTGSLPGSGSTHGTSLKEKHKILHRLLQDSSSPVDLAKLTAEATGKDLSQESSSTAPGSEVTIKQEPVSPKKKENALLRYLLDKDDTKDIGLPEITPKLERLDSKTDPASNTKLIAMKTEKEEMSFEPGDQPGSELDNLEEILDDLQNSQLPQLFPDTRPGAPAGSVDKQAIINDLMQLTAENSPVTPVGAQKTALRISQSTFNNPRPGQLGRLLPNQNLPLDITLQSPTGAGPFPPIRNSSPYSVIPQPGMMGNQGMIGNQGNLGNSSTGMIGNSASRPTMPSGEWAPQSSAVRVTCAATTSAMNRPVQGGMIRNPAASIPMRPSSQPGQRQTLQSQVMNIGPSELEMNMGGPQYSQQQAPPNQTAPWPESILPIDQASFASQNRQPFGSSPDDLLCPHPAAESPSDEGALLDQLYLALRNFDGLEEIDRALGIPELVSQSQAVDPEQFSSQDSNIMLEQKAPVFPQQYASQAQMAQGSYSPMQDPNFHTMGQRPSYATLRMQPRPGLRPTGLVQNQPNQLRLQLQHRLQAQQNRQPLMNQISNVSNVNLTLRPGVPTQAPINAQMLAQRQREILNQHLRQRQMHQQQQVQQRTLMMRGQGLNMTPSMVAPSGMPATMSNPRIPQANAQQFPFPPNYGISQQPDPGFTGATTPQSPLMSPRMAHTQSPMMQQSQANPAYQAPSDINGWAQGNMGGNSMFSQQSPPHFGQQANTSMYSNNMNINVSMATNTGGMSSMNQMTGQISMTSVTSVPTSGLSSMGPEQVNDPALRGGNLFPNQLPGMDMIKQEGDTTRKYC

[6] = target: T2, Microphthalmia-associated transcription factor (Homo sapiens, UniProt O75030); test: TRPM1 promoter luciferase signal decrease, dose response, MITF inhibitor project, cell-based, SK-MEL-5, cherry-picked, set 3 (AID 493073); assay type: functional
T2 sequence (O75030 whole entry): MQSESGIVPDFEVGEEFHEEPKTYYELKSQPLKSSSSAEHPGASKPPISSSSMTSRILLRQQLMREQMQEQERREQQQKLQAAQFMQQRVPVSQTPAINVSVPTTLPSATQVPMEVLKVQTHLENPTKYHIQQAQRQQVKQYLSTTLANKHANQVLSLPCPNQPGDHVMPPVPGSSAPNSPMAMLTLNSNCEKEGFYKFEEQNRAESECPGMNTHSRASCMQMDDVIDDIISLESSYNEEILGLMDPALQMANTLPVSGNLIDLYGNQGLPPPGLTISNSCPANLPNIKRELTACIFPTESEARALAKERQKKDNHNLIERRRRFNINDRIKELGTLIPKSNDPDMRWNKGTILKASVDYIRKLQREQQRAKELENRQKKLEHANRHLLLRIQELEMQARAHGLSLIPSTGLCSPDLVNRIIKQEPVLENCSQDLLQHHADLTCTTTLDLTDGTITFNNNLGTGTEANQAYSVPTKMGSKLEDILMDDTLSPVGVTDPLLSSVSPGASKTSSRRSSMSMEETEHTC

[7] = system: A-375; test: MITF: Counter assay: A375 proliferation Measured in Cell-Based System Using Plate Reader - 2084-03_Inhibitor_Dose_DryPowder_Activity. [Related pubchem assays (depositor defined):AID488944]; assay type: functional; conditions: Homo sapiens
[8] = target: T3, Cytochrome P450 1A2 (Homo sapiens, UniProt P05177);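 also: PubChem cytochrome P450 panel assay, CYP1A2 panel member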
T3 sequence (P05177 whole entry): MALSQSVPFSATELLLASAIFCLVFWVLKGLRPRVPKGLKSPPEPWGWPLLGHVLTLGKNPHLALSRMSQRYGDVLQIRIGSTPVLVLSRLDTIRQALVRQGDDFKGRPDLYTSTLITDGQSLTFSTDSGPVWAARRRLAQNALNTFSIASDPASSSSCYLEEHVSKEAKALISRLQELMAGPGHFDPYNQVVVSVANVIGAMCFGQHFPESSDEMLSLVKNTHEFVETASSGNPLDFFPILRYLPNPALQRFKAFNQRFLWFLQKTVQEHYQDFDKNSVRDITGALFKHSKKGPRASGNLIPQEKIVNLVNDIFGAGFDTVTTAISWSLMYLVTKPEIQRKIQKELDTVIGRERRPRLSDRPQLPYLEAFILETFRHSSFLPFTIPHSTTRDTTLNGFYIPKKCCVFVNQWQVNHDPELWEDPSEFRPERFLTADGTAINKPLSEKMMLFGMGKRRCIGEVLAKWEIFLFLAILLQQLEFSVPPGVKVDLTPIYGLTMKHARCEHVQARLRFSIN

[9] = target: Cytochrome P450 3A4 (Homo sapiens, UniProt P08684);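 also: CYP3A4 tested as one member of a cytochrome P450 panel screen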
Sequence of Cytochrome P450 3A4 (P08684 whole entry): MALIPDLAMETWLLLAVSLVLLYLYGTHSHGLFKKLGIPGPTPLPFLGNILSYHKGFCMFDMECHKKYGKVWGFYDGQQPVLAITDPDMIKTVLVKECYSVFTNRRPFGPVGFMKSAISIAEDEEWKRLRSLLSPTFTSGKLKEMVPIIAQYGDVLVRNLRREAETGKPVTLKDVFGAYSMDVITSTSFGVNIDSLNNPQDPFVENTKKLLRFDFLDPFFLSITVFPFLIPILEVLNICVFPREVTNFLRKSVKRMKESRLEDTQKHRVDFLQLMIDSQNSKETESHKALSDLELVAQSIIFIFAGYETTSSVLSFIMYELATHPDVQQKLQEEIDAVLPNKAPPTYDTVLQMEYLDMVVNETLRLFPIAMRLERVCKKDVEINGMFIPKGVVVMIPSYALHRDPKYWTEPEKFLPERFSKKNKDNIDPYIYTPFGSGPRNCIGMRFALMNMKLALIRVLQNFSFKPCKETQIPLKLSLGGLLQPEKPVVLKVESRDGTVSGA

[10] = target: T4, Insulin-degrading enzyme (Homo sapiens, UniProt P14735); test: activators of recombinant IDE enzyme, dose response, counter-screen for IDE activator project, biochemical, fluorescence polarization (AID 588681)
T4 sequence (P14735 whole entry): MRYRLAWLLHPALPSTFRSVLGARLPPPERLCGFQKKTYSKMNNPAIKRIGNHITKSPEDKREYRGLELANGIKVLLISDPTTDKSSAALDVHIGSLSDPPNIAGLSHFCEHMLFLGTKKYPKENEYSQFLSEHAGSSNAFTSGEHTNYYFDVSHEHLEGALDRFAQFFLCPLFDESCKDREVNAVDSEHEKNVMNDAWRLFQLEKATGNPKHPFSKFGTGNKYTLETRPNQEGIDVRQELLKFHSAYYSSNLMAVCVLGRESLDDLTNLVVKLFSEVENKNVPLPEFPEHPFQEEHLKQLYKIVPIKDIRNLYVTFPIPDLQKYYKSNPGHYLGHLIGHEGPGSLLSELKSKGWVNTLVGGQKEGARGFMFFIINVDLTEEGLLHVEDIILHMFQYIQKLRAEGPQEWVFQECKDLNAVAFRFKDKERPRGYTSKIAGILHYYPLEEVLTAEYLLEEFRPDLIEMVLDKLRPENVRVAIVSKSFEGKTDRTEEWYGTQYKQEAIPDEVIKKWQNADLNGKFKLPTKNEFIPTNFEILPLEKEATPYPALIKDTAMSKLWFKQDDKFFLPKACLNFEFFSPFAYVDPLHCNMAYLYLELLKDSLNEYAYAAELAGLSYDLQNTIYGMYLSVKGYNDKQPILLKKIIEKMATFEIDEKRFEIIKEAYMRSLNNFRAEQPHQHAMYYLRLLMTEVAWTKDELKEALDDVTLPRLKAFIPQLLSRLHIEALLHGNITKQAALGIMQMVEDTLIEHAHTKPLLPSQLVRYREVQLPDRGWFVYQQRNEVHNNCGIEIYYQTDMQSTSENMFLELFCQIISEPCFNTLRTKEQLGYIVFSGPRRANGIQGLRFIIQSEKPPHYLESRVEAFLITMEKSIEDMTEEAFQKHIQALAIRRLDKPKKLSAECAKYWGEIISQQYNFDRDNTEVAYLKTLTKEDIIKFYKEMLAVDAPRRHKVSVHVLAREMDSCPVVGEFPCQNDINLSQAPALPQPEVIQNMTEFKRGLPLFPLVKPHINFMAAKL

[11] = target: T4, Insulin-degrading enzyme; test: activators of endogenous IDE in HEK cells, dose response, cell-based, fluorescence polarization (AID 588439); assay type: functional
[12] = system: HEK293; test: HEK cell cytotoxicity by LDH release, dose response, cytotoxicity control for IDE activator project, fluorescence, HEK cells (AID 588440); assay type: functional, cell-based; conditions: Homo sapiens;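 also: cytotoxicity by LDH release measuring loss of membrane integrity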
[13] = system: HEK293; test: optical interference in Abeta FP readout, dose response, artefact control for IDE activator project, biochemical, fluorescence polarization (AID 588442); assay type: functional, cell-based; conditions: Homo sapiens

SMILES: COc1ccc(-c2csc(NNC3=NCCCCC3)n2)cc1
- EC50 [2]: > 350 µM (not active)
- AC50 [1]: 7.08 µM (active)

SMILES: CCn1c(=O)cc(SCC(=O)NCc2ccc3c(c2)OCO3)c2ccccc21
- EC50 [3]: > 79.4 µM (inactive)
- EC50 [4]: > 79.4 µM (not active)
- EC50 [5]: > 79.4 µM (not active)

SMILES: CCN1CCN(C2=C(NS(=O)(=O)c3ccc(C)cc3)C(=O)c3ccccc3C2=O)CC1
- AC50 [6]: 4.18 µM (active)
- AC50 [7]: 36.6 µM (active)

SMILES: NC(CO)c1cn([C@@H](CCC(=O)O)C(=O)N2CCNCC2)nn1 (stereo not given in full)
- EC50 [10]: > 54.7 µM (inactive)
- EC50 [11]: > 54.7 µM (inactive)
- IC50 [12]: > 89.2 µM (inactive)
- EC50 [13]: > 55.9 µM (inactive)

The remaining lines, values ahead:

- AC50 [1]: 11.5 µM (active)
SMILES: COC(=O)[C@@H](N)Cc1ccc(O)c(O)c1

- AC50 [1]: 44.8 µM (active)
SMILES: COCCCNC(=O)C1CCN(C(=O)Nc2ccc(Cl)cc2)CC1

- AC50 [8]: 1.58 µM (inconclusive)
- AC50 [9]: inconclusive
SMILES: Cc1ccc2nc(SCc3nnc(-c4ccccc4[N+](=O)[O-])o3)c(C#N)cc2c1
